{
  "source": "paper PMC11775185",
  "about": "“Structure and function of a near fully-activated intermediate GPCR-Gαβγ complex” (Nature Communications, 2025)",
  "test_in_all_cases": "GTPase-Glo luminescence, Lineweaver-Burk",
  "key": {"[1]": {"system": "T1, WT*-mediated Gαsβγ (A2AR-Gαsβγ complex)", "T1 construct": "gene GNAS; cited protocols may use bovine/rat subunits), with purified A2AR_316 V229C in LMNG/CHS; Adenosine receptor A2a", "format": "biochemical, Homo sapiens", "conditions": "agonist-activated WT* receptor (S5), with cognate GAP, pH […], room temperature", "text": "GTPase-Glo luminescence, Lineweaver-Burk on WT*-mediated Gαsβγ (A2AR-Gαsβγ complex) | and the S5 mediated Gαsβγ (positive control)"}, "Gαsβγ alone": {"system": "T2, Gαsβγ alone", "T2 construct": "gene GNAS; full-length Gαsβγ heterotrimer without receptor", "format": "biochemical", "conditions": "[…] Gαsβγ without receptor, with cognate GAP, pH […], room temperature", "text": "GTPase-Glo luminescence, Lineweaver-Burk on Gαsβγ alone | Km values for S4 mediated Gαsβγ, in reference to Gαsβγ alone (negative control)"}, "[2]": {"system": "T3, Gαsβγ (A2AR-Gαsβγ complex)", "T3 construct": "gene GNAS; cited protocols may use bovine/rat subunits), with purified A2AR_316 V229C in LMNG/CHS; Adenosine receptor A2a", "format": "biochemical, Homo sapiens", "conditions": "R291A receptor (S4), with cognate GAP, pH […], room temperature", "text": "GTPase-Glo luminescence, Lineweaver-Burk on WT*-mediated Gαsβγ (A2AR-Gαsβγ complex) | we measured the initial rates and Michaelis constants of GTP hydrolysis"}},
  "data": [
    {"compound": "Nc1nc2c(ncn2[C@@H]2O[C@H](COP(=O)(O)OP(=O)(O)OP(=O)(O)O)[C@@H](O)[C@H]2O)c(=O)[nH]1", "note": "[GTP]", "values": [
      {"measurement": "Km", "setting": "[1]", "result": "32.1 ± 1", "unit": "µM"},
      {"measurement": "Km", "setting": "Gαsβγ alone", "result": "8.3 ± 0.61", "unit": "µM"},
      {"measurement": "Km", "setting": "[2]", "result": "18 ± 1.87", "unit": "µM"}
    ]}
  ]
}
